Results: ChEMBL document CHEMBL4602676, “Discovery and Development of 3-(6-Chloropyridine-3-yloxymethyl)-2-azabicyclo[3.1.0]hexane Hydrochloride (SUVN-911): A Novel, Potent, Selective, and Orally Active Neuronal Nicotinic Acetylcholine α4β2 Receptor Antagonist for the Treatment of Depression” (J Med Chem, 2020)

What was measured:
[1] = Cmax in Wistar rat at 10 ml/kg, po or 2 ml/kg, iv measured upto 24 hrs by LC-MS/MS analysis; format: ADME, organism-based; settings: in vivo
[2] = AUC in Wistar rat at 10 ml/kg, po or 2 ml/kg, iv measured upto 24 hrs by LC-MS/MS analysis; format: ADME, organism-based; settings: in vivo
[3] = Toxicity in telemetered Beagle dog assessed as change in body weight up to 25 mg/kg, po; format: organism-based, Canis lupus familiaris; settings: in vivo
[4] = Ratio of drug level in brain to plasma in Wistar rat at 10 ml/kg, po or 2 ml/kg, iv measured upto 24 hrs by LC-MS/MS analysis; format: ADME, organism-based; settings: brain and plasma, read-out: BPR
Rattus norvegicus = assay: Antidepressant activity in Wistar rat assessed as immobility time at 10.0 mg/kg, po measured for 5 mins by forced swim test (reference value: 241.9 to 281.6 sec); format: functional
[5] = Terminal half life in Beagle dog at 1 mg/kg, iv by LC-MS/MS analysis; format: ADME, organism-based, Canis lupus familiaris; settings: in vivo, read-out: beta t1/2 (converted)
[6] = target: Neuronal acetylcholine receptor; alpha4/beta2 (Rattus norvegicus, UniProt P09483+P12390); assay: In vivo receptor occupancy at alpha4beta2 nAChR in Wistar rat assessed as brain concentration pretreated for 15 mins followed by non radiolabelled ZW-104 tracer treatment and measured after 45 mins by LC-MS/MS analysis; format: functional, organism-based
[7] = Toxicity in telemetered Beagle dog assessed as change in blood pressure up to 25 mg/kg, po; format: organism-based, Canis lupus familiaris; settings: in vivo
Bone marrow cell = assay: Genotoxicity in mouse bone marrow cells assessed as non clastogenic by micronucleus assay; format: toxicity, cell-based
Cytochrome P450 1A2 = target: T1, Cytochrome P450 1A2 (Homo sapiens, UniProt P05177); assay: Induction of CYP1A2 (unknown origin); format: ADME
T1 sequence (P05177 whole entry): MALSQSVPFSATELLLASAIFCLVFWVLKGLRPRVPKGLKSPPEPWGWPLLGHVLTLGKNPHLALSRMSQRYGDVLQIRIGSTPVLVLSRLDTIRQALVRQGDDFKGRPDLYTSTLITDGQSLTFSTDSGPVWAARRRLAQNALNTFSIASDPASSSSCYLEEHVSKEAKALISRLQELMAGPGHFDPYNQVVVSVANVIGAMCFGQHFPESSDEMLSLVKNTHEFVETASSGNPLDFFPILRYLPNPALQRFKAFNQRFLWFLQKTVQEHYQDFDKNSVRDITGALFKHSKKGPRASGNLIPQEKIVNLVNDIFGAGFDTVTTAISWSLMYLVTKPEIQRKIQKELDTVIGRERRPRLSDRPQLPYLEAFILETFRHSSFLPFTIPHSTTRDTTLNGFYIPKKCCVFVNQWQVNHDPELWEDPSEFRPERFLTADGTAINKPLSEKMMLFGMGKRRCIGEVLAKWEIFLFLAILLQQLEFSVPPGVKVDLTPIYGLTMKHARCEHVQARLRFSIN

Cytochrome P450 3A4 = Cytochrome P450 3A4 (Homo sapiens, UniProt P08684); assay: Induction of CYP3A4 (unknown origin); format: ADME
[8] = target: T2, Solute carrier organic anion transporter family member 1B1 (Homo sapiens, UniProt Q9Y6L6); assay: Inhibition of OATP1B1 (unknown origin)
T2 sequence (Q9Y6L6 whole entry): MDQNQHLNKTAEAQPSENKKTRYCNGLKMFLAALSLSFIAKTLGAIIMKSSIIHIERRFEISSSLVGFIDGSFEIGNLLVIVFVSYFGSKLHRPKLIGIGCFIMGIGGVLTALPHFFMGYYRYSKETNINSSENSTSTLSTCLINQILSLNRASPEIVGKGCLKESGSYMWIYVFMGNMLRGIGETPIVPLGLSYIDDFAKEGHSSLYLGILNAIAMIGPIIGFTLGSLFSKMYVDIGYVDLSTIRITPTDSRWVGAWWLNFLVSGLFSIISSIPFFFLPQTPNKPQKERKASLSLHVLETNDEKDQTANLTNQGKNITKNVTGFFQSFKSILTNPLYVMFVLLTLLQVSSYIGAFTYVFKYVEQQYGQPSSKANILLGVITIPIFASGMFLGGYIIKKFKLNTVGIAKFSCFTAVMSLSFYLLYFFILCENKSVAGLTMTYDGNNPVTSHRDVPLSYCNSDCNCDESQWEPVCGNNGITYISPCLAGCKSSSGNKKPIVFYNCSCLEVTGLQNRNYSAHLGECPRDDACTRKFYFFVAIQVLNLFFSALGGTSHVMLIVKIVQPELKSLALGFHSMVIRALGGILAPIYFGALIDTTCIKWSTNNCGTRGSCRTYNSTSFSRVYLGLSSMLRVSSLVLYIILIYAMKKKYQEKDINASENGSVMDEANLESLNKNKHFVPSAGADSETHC

[9] = Genotoxicity in Salmonella typhimurium TA100 in presence of metabolic activation; format: toxicity; settings: salmonella enterica subsp. enterica serovar typhimurium

Cytochrome P450 3A4, sequence (P08684 whole entry): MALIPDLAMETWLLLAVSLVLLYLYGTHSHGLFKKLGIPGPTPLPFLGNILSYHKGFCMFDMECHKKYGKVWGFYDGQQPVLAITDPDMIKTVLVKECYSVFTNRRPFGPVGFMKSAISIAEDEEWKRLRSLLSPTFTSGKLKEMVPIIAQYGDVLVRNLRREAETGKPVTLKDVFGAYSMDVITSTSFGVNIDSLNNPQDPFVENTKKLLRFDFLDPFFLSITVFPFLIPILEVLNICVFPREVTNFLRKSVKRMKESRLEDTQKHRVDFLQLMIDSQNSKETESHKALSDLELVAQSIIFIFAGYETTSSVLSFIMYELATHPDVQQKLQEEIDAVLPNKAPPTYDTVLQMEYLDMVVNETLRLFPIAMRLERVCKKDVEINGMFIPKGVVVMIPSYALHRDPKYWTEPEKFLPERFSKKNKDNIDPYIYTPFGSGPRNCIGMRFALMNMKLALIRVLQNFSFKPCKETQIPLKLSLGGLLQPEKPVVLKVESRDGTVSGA
Neuronal acetylcholine receptor; alpha4/beta2, sequence (P09483 whole entry): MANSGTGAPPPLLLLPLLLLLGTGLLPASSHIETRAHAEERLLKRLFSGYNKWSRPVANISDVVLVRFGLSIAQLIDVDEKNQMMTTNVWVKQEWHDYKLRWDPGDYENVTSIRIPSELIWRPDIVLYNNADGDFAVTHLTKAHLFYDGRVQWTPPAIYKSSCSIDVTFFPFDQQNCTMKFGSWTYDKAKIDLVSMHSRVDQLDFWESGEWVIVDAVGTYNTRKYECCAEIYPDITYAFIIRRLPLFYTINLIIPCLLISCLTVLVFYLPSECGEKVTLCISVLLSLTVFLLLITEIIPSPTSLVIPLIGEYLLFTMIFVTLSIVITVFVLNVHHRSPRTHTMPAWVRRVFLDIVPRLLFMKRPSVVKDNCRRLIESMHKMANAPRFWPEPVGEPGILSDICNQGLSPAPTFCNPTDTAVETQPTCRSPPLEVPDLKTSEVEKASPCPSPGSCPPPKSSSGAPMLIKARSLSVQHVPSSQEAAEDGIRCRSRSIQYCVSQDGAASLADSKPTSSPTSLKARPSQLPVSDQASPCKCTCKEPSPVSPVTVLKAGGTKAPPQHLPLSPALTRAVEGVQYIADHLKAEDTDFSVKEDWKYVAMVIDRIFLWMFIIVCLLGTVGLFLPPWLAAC
Neuronal acetylcholine receptor; alpha4/beta2, sequence (P12390 whole entry): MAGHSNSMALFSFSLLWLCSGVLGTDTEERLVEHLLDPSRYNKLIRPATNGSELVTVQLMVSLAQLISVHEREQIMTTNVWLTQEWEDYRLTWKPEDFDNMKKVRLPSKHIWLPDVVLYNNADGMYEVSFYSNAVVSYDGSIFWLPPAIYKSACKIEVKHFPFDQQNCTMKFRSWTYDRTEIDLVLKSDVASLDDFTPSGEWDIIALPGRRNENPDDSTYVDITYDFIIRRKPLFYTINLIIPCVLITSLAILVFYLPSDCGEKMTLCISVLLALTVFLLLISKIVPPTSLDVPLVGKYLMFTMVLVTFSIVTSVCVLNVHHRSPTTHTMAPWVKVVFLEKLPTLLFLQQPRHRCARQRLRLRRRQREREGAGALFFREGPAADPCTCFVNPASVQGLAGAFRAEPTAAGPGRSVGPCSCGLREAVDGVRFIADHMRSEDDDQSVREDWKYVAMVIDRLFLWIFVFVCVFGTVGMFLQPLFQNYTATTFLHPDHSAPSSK

Cl.Clc1ccc(OC[C@@H]2C[C@H]3C[C@H]3N2)cn1
Cmax [1]: 1910 ng/mL
AUC at 24 h [2]: 3510 ng·h/mL
Activity [3]: Non-Toxic
Kp at 24 h [4]: 2.34
Time (Rattus norvegicus): 81.5 s
half-life [5]: 1.9 h
EC50 [6]: 334 µM
Activity [7]: Non-Toxic
Activity (Bone marrow cell): Non-Toxic
Activity (Cytochrome P450 1A2): Not Active
Activity (Cytochrome P450 3A4): Not Active
inhibition (INH) [8]: Not Active
Activity [9]: Non-Toxic
